From DBAASP
In brackets after ≈: the same amount, converted by molar mass. One block for each molecule: values may come before it.

How the values were obtained:
Test in all cases: ≥ marks a high value that may be exact or a test limit, other limits are often not marked, values filed in µg/mL are converted to µM
[1] = system: Candida glabrata ATCC 90525
[2] = system: Candida krusei ATCC 6258
[3] = system: Candida tropicalis ATCC 20240
[4] = system: Candida parapsilosis ATCC 20224
[5] = system: Candida albicans ATCC 2048
[6] = system: Enterococcus faecalis CIP 76.117
[7] = system: Escherichia coli CIP 54.8T
[8] = system: Listeria monocytogenes CIP 110871
[9] = system: Bacillus megaterium CIP 51.17
[10] = system: Vibrio alginolyticus CIP 109819
[11] = system: Aeromonas salmonicida CIP 103209T
[12] = system: Staphylococcus aureus CIP 53.156
[13] = system: Salmonella typhimurium CIP 103446
[14] = system: Escherichia coli ATCC 25922
[15] = system: Escherichia coli NCTC 10418
[16] = system: Staphylococcus aureus ATCC 25923
[17] = system: Staphylococcus aureus NCTC 12981
[18] = system: Bacillus megaterium Bm11
[19] = system: Serratia marcescens ATCC 8100
[20] = system: Salmonella enterica subsp. enterica serovar Typhimurium ATCC 14028
[21] = system: Escherichia coli D21
[22] = system: Escherichia coli ML-35
[23] = system: Staphylococcus epidermidis ATCC 12228
[24] = system: Micrococcus luteus ATCC 4698
[25] = system: Enterococcus faecium CCT 5079
[26] = system: Streptococcus pneumoniae ATCC 11733
[27] = system: Bacillus thuringiensis ATCC 10792
[28] = system: Bacillus cereus ATCC 11778
[29] = system: Streptococcus mutans AU159
[30] = system: Staphylococcus aureus CCT 6538
[31] = system: Salmonella enterica subsp. enterica serovar Choleraesuis ATCC 10708
[32] = system: Enterococcus hirae ATCC 10541
[33] = system: Escherichia coli CCT 1457
[34] = system: Pseudomonas aeruginosa ATCC 15422
[35] = system: Staphylococcus aureus CCT 2580
[36] = system: Escherichia coli ATCC 11775
[37] = system: Pseudomonas aeruginosa ATCC 13388
[38] = system: Bordetella bronchiseptica CUN 11844-99
[39] = system: Pseudomonas aeruginosa CUN 4158-02
[40] = system: Staphylococcus aureus ATCC 29213
[41] = system: Staphylococcus pseudintermedius
[42] = system: Pseudomonas aeruginosa
[43] = system: Pseudomonas aeruginosa ATCC 27853

SMILES: C[C@H](NC(=O)CN)C(=O)N[C@@H](CCCCN)C(=O)N[C@@H](CCC(=O)O)C(=O)N[C@@H](CCCN=C(N)N)C(=O)N[C@@H](C)C(=O)N[C@@H](Cc1cnc[nH]1)C(=O)N[C@@H](CCC(N)=O)C(=O)O [GAKERAHQ]
MIC [1]: ≥ 300 µM
MIC [2]: ≥ 240 µM
MIC [3]: ≥ 290 µM
MIC [4]: ≥ 300 µM
MIC [5]: ≥ 240 µM

SMILES: CC[C@H](C)[C@H](NC(=O)[C@@H](N)CCCCN)C(=O)N[C@@H](CCCN=C(N)N)C(=O)N[C@@H](Cc1ccccc1)C(=O)N[C@H](C(=O)N[C@@H](CCCN=C(N)N)C(=O)N[C@H](C(=O)N[C@H](C(=O)N[C@@H](CO)C(=O)N[C@@H](CCCN=C(N)N)C(=O)N[C@@H](CC(C)C)C(=O)N[C@@H](CC(C)C)C(=O)N[C@@H](CCCCN)C(=O)N[C@@H](C)C(=O)N[C@@H](C)C(=O)N[C@@H](CC(C)C)C(=O)N[C@@H](C)C(=O)N[C@@H](CO)C(=O)N[C@H](C(=O)O)[C@@H](C)O)C(C)C)[C@@H](C)O)[C@@H](C)O [KIRFTRTVSRLLKAALAST]
MIC [6]: ≥ 122 µM
MIC [7]: 3.16 µM (≈ 6.74 µg/mL)
MIC [8]: ≥ 50 µM
MIC [9]: 3.16 µM (≈ 6.74 µg/mL)
MIC [10]: ≥ 35.4 µM
MIC [11]: 15.8 µM (≈ 33.7 µg/mL)
MIC [12]: 15.8 µM (≈ 33.7 µg/mL)
MIC [13]: ≥ 86.6 µM

SMILES: CC[C@H](C)[C@H](N)C(=O)N[C@@H](CC(N)=O)C(=O)N[C@@H](Cc1c[nH]c2ccccc12)C(=O)N[C@@H](CC(C)C)C(=O)N[C@@H](C)C(=O)N[C@H](C(=O)N[C@@H](C)C(=O)N[C@@H](CCCCN)C(=O)N[C@@H](CCCCN)C(=O)N[C@H](C(=O)N[C@@H](C)C(=O)NCC(=O)N[C@@H](CCSC)C(=O)N[C@@H](CC(C)C)C(N)=O)C(C)C)[C@@H](C)CC [INWLAIAKKVAGML]
MIC [14]: 2.62 µM (≈ 4 µg/mL)
MIC [24]: 2.62 µM (≈ 4 µg/mL)
MIC [25]: 5.24 µM (≈ 8 µg/mL)
MIC [26]: 1.31 µM (≈ 2 µg/mL)
MIC [16]: 15.1 µM (≈ 23 µg/mL)
MIC [27]: 5.24 µM (≈ 8 µg/mL)
MIC [20]: 20.3 µM (≈ 31 µg/mL)
MIC [28]: 10.5 µM (≈ 16 µg/mL)
MIC [29]: 2.62 µM (≈ 4 µg/mL)
MIC [30]: 2.62 µM (≈ 4 µg/mL)
MIC [31]: 10.5 µM (≈ 16 µg/mL)
MIC [32]: 5.24 µM (≈ 8 µg/mL)
MIC [33]: 2.62 µM (≈ 4 µg/mL)
MIC [34]: 10.5 µM (≈ 16 µg/mL)
MIC [35]: 2.62 µM (≈ 4 µg/mL)
MIC [36]: 5.24 µM (≈ 8 µg/mL)
MIC [23]: 2.62 µM (≈ 4 µg/mL)
MIC [37]: ≥ 41.2 µM

SMILES: CC[C@H](C)[C@H](NC(=O)CN)C(=O)NCC(=O)N[C@@H](CCCCN)C(=O)N[C@@H](Cc1ccccc1)C(=O)N[C@@H](CO)C(=O)N[C@@H](CCCCN)C(=O)N[C@@H](CCCCN)C(=O)NCC(=O)N[C@@H](C)C(=O)N[C@@H](C)C(=O)N[C@@H](C)C(=O)N[C@@H](CCCN=C(N)N)C(=O)N[C@@H](CCCN=C(N)N)C(=O)N[C@@H](CCCN=C(N)N)C(=O)N[C@@H](CCCCN)C(=O)N[C@H](C(=O)N[C@@H](CO)C(=O)N[C@@H](CC(C)C)C(=O)N[C@@H](CCCCN)C(=O)N[C@@H](C)C(=O)N[C@@H](CC(C)C)C(N)=O)C(C)C [GIGKFSKKGAAARRRKVSLKAL]
MIC [14]: > 219 µM
MIC [16]: > 219 µM
MIC [38]: ≥ 219 µM
MIC [39]: ≥ 219 µM

SMILES: CC[C@H](C)[C@H](NC(=O)[C@H](CC(C)C)NC(=O)[C@@H]1CCCN1C(=O)[C@H](CCCCN)NC(=O)[C@H](CC(C)C)NC(=O)[C@H](CCCN=C(N)N)NC(=O)[C@H](CCCN=C(N)N)NC(=O)[C@H](CC(C)C)NC(C)=O)C(=O)N[C@@H](CCCN=C(N)N)C(=O)N1CCC[C@H]1C(=O)N[C@@H](Cc1c[nH]c2ccccc12)C(=O)N[C@@H](CC(C)C)C(=O)N[C@@H](CCCN=C(N)N)C(=O)N1CCC[C@H]1C(=O)N[C@@H](CC(C)C)C(=O)N[C@@H](CCCN=C(N)N)C(=O)N[C@@H](CCCN=C(N)N)C(=O)N[C@@H](Cc1c[nH]c2ccccc12)C(=O)N[C@@H](Cc1c[nH]c2ccccc12)C(=O)N[C@@H](Cc1c[nH]c2ccccc12)C(N)=O [LRRLKPLIRPWLRPLRRWWW]
MIC [40]: 11.4 µM (≈ 32.5 µg/mL)
MIC [41]: 16.2 µM (≈ 45.9 µg/mL)
MIC [42]: 4.04 µM (≈ 11.5 µg/mL)
MIC [43]: 5.72 µM (≈ 16.2 µg/mL)

Results, then the molecule that gave them:

MIC [14]: > 366 µM
MIC [15]: ≥ 234 µM
MIC [16]: 183 µM (≈ 99.8 µg/mL)
MIC [17]: ≥ 234 µM
SMILES: NC(=O)[C@H](Cc1c[nH]c2ccccc12)NC(=O)[C@H](CCCN=C(N)N)NC(=O)[C@@H](N)Cc1c[nH]c2ccccc12 [WRW]

MIC [18]: ≥ 32 µM
MIC [19]: ≥ 32 µM
MIC [20]: 32 µM (≈ 61.2 µg/mL)
MIC [21]: 16 µM (≈ 30.6 µg/mL)
MIC [22]: ≥ 32 µM
MIC [23]: > 64 µM
SMILES: CC(C)C[C@H](NC(=O)[C@H](Cc1ccc(O)cc1)NC(=O)[C@@H]1CCCN1C(=O)[C@@H]1CCCN1C(=O)[C@H](CCCN=C(N)N)NC(=O)[C@@H]1CCCN1C(=O)[C@H](CCCN=C(N)N)NC(=O)[C@H](CCCN=C(N)N)NC(=O)[C@@H](N)CCCN=C(N)N)C(=O)N[C@@H](CCCN=C(N)N)C(=O)N1CCC[C@H]1C(=O)N[C@@H](CCCN=C(N)N)C(=O)N1CCC[C@H]1C(=O)N1CCC[C@H]1C(=O)N1CCC[C@H]1C(=O)O [RRRPRPPYLRPRPPP]
